Measurements: patent US8101618B2, “1,4-substituted piperazine derivatives” (MSD K.K., priority 2005, dated 2012)

Key:
[1] = molecular target: T1, human metabotropic glutamic acid receptor 1a (mGluR1a) (Homo sapiens, UniProt Q13255); test: Measurement of intracellular calcium concentration (FLIPR) in mGluR1a-expressing CHO cells; assay type: cell-based; conditions: for IC50: Fluo-3, compound added 5 minutes before 10 μM glutamic acid, read-out: IC50 (inhibition of the calcium increase caused by 10 μM glutamic acid); for agonistic effect to mGluR1: to 10 μM, intracellular calcium
T1 construct: expressed in transfected cells
Description: Using LIPOFECTAMINE (BY Gibco BRL), CHO cells were transfected with a cDNA of a human metabotropic glutamic acid receptor 1a (mGluR1a), thereby obtaining an mGluR1a stable expression strain. The mGluR1a-expressing CHO cells were incubated in a DMEM medium containing 10% dialyzed fetal calf serum, 1% proline, 100 units/ml penicillin, 0.1 mg/ml streptomycin sulfate, and 2 mM glutamine.
On the day before the test day, the mGluR1a-expressing CHO cells that had been plated in a 96-well black plate (View Plate by Packard) at […] with 4 μM Fluo-3 were incubated in a CO2 incubator for 1 hour. Next, the cells were washed four times with an HBSS solution containing 20 mM HEPES and 2.5 mM Probenecid, and then the intracellular calcium concentration was measured using Fluorescence Imaging Plate Reader (FLIPR by Molecular Device). The test compound and glutamic acid were conditioned with an HBSS solution containing 20 mM HEPES and 2.5 mM Probenecid. The test compound was added to the system before 5 minutes of agonist stimulation, and 10 μM glutamic acid was used as the agonist.

Male ICR (CD-1) mice = test: Inhibitory effect of compound to mouse action increased by methamphetamine; assay type: in vivo; conditions: compound 30 mg/kg intraabdominal 30 minutes before methamphetamine 2 mg/kg subcutaneous; motion watched for 60 minutes
Description: Male ICR (CD-1) mice (20-40 g) were used. Using a motion watcher (by Neuroscience) for watching animal movement with an IR sensor, the motion of the mice was determined. A compound or a suitable solvent was administered to each mouse, and after 30 minutes, physiological saline water or methamphetamine was administered thereto. Immediately after that, the motion of the mice was watched for 60 minutes. Based on the difference between the motion of the methamphetamine-administered group and the solvent-administered group during the test term, 100%, the motion of the test compound-administered group is computed and expressed as inhibition %.

T1 sequence (Q13255 19-1194): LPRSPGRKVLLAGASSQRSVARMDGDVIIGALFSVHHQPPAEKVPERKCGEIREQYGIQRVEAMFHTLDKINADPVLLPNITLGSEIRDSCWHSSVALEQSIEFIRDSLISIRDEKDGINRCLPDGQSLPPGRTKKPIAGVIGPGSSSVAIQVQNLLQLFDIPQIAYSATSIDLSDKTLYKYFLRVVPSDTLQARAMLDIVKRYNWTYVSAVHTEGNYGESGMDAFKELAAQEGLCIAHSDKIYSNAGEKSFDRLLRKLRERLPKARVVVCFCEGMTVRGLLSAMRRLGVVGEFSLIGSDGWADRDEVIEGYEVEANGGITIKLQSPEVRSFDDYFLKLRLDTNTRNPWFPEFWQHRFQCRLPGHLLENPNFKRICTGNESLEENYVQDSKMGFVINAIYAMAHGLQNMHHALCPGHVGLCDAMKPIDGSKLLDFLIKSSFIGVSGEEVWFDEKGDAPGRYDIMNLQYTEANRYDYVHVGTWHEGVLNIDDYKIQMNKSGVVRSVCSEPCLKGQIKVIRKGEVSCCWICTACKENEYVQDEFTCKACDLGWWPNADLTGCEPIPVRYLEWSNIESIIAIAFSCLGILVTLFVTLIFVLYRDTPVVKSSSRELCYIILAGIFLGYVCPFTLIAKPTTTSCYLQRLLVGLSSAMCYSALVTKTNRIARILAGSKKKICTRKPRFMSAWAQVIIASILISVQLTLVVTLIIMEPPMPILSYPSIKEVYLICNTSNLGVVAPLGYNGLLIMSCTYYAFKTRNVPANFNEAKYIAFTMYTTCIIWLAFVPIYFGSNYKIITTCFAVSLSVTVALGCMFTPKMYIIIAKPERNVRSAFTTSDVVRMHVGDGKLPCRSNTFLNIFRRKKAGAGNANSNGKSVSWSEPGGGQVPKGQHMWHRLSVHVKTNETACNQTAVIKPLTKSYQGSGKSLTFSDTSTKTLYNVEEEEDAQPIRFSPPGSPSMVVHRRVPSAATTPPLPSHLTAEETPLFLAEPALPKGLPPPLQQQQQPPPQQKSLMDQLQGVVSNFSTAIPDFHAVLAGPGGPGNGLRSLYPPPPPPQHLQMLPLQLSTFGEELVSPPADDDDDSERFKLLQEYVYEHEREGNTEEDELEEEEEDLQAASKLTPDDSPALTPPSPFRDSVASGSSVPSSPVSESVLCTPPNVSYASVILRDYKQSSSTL

Structure (SMILES): C[C@H](O)c1nc(-c2ccnc(N3CCN(C(=O)CCC(C)(C)C)CC3)c2)no1 [Example 58, 1-(4,4-Dimethylpentanoyl)-4-(4-{5-[(1S)-hydroxyethyl]-1,2,4-oxadiazol-3-yl}pyridin-2-yl)piperazine]
- IC50 [1]: 16 nM
- agonistic effect to mGluR1 [1]: no agonistic effect
- Motion (inhibition %) (Male ICR (CD-1) mice): >50%

Structure (SMILES): C[C@@H](O)c1nc(-c2ccnc(N3CCN(C(=O)OCC(C)(C)C)CC3)c2)no1 [Example 27, 2,2-Dimethylpropyl 4-(4-{5-[(1R)-1-hydroxyethyl]-1,2,4-oxadiazol-3-yl}pyridin-2-yl)-1-piperazinecarboxylate]
- IC50 [1]: 9.6 nM
- agonistic effect to mGluR1 [1]: no agonistic effect
- Motion (inhibition %) (Male ICR (CD-1) mice): >50%

Structure (SMILES): Cc1ccnc(N2CCN(C(=O)OCC(C)(C)C)CC2)c1 [Example 1, 2,2-Dimethylpropyl 4-(4-methylpyridin-2-yl)-1-piperazinecarboxylate]
- IC50 [1]: 6.9 nM
- agonistic effect to mGluR1 [1]: no agonistic effect
- Motion (inhibition %) (Male ICR (CD-1) mice): >50%

Structure (SMILES): CNc1nc(-c2ccnc(N3CCN(C(=O)OCC(C)(C)C)CC3)c2)no1 [Example 39, 2,2-Dimethylpropyl 4-{4-[5-(methylamino)-1,2,4-oxadiazol-3-yl]pyridin-2-yl}-1-piperazinecarboxylate]
- IC50 [1]: 13 nM
- agonistic effect to mGluR1 [1]: no agonistic effect
- Motion (inhibition %) (Male ICR (CD-1) mice): >50%

Structure (SMILES): CC(C)(C)COC(=O)N1CCN(c2nc3ccccc3o2)CC1 [Example 3, 2,2-Dimethylpropyl 4-(benzoxazol-2-yl)-1-piperazinecarboxylate]
- IC50 [1]: 33 nM
- agonistic effect to mGluR1 [1]: no agonistic effect
